The values below are quoted from earlier work in publication PMC4741275 (Analytical Chemistry, 2016).

SMILES strings stand for the structures.

This series relates to lysosomes.

For `Cc1cn(-c2cc(NC(=O)c3ccc(C)c(Nc4nccc(-c5cccnc5)n4)c3)cc(C(F)(F)F)c2)cn1` [nilotinib], the enrichment in lysosomes result was “over 1000 fold”. For the compound `Cc1ccc(NC(=O)c2ccc(CN3CCN(C)CC3)cc2)cc1Nc1nccc(-c2cccnc2)n1` [imatinib], the enrichment in lysosomes result is recorded as “over 1000 fold”.
